Values joined by “and” are separate entries in the source; they are usually repeats but may differ in a detail not shown here. Equal values may be shown once.
Assays:
[1] = tested on: A. solani; experiment: Field test against early blight in potato; assay type: in vivo, Alternaria solani; details: sprayed at a usual concentration; for Morbidity (%) Avg.: average of 3 repeats
Method: (§1) Greenhouse and field tests of the fungicidal activity of the antagonistic microbe against various pathogenic fungi are conduced. For this, tomatoes are cultivated both in a greenhouse and a field. The tomatoes cultivated in a greenhouse and a field are treated with the spore suspension of the novel antagonistic microbe of the present invention and then exposed to pathogenic fungi, B. cinerea causing gray mold rot, C. fulvum causing leaf mold, and A. solani causing early blight, separately. The experiment is performed according to a randomized block design with three repeat measures. For comparison, procymidone for use in the control of gray mold rot, propineb for use in the control of leaf mold, and azoxystrobin for use in the control of early blight are employed. Morbidity is determined by examining the infection of all tomatoes one by one or by a sampling method. A significance test is carried out according to Duncan's multiple range test (DMRT).
To determine the fungicidal activity of the antagonistic microbe of the present invention against A. solani causing early blight, tomato was cultivated in a field. The cultivation was performed in the following schedule;
June 10 1st Treatment with the antagonistic microbe (spray amount 300 L/10 a)
July 5 2nd Treatment with the antagonistic microbe (spray amount 300 L/10 a)
July 13 Measuring mobidity
The experiment was performed in a randomized block design with three repeat measures. For comparison, azoxystrobin was sprayed as a control at a usual concentration. Morbidity was determined by examining the infection of 20 stocks of potatoes per repeat measure and attack frequency was calculated as in Experimental Example 4-2.

[2] = tested on: B. cinerea; experiment: Greenhouse test against tomato gray mold rot; assay type: in vivo, Botrytis cinerea; details: sprayed at a usual concentration
Method: as §1
To determine the fungicidal activity of the antagonistic microbe of the present invention against B. cinerea causing gray mold rot, tomato plants were cultivated in a greenhouse with a dimension of 23.7 m in length, 7.0 m in width and 2.3 m in height. The cultivation was performed according to the following schedule;
February 11 1st Treatment with the antagonistic microbe (spray amount 300 L/10 a)
February 20 2nd Treatment with the antagonistic microbe (spray amount 300 L/10 a)
March 2 3rd Treatment with the antagonistic microbe (spray amount 330 L/10 a)
March 22 Measuring mobidity
The tomato plants treated with the antagonistic microbe occupied an area of 5.4 m2 and the experiment was performed in triplicate in a randomized block design. For comparison, Procymidone was sprayed as a control at a usual concentration. The spore suspension of the antagonistic microbe prepared in Example 2 was added directly to water to bring about 500- and 1,000-fold dilutions of the population. Morbidity was determined by examining the infection of all tomato plants one by one. A significance test was performed according to Duncan's multiple range test (DMRT).

[3] = tested on: C. fulvum; experiment: Greenhouse test against leaf mold in tomato; assay type: in vivo, Cladosporium fulvum; details: sprayed at a usual concentration; for Morbidity (%) Avg.: average of 3 repeats
Method: as §1
To determine the fungicidal activity of the antagonistic microbe of the present invention against C. fulvum causing leaf mold, tomato plants were cultivated in the same manner as in Experimental Example 4-1 in a greenhouse with a dimension of 23.7 m in length, 7.0 m in width and 2.3 m in height. The experiment was performed in triplicate in a randomized block design. For comparison, propineb was sprayed as a control at a usual concentration. Morbidity was determined by examining the infection of 20 stalks of tomatoes per repeat measure and attack frequency was calculated according to the following equation: [formula]
wherein the factor is set to be: 0 when no leaves are infected; 1 when one forth of the total leaves are infected; 2 when half of the total leaves are infected and some of them are withered; 3 when three fourths of the total leaves are infected and half of them are withered; and 4 when two thirds are withered to death.

In the case of `CO/C=C(/C(=O)OC)c1ccccc1Oc1cc(Oc2ccccc2C#N)ncn1` [Azoxytrobin, azoxystrobin], the “Control value(%)” value [1] is reported as 57.6%, the “Morbidity (%) Avg.” value [1] is reported as 9.2 A % and the “Morbidity (%) Avg.” value ([1]; listed as azoxystrobin) is reported as 9.2%. The “Morbidity (%) 1” value ([1]; repeat 1) was 9.3%, the “Morbidity (%) 2” value ([1]; repeat 2) was 10.2% and the “Morbidity (%) 3” value ([1]; repeat 3) was 8.2%.

For `CC12CC1(C)C(=O)N(c1cc(Cl)cc(Cl)c1)C2=O` (centres unmarked) [Procymidone], the “Control value(%)” value [2] was 40.2%, the “Morbidity (%) Avg.” value ([2]; average of 3 repeats) was 10.4% and 10.4 B % and the “Morbidity (%) 1” value ([2]; repeat 1) was 12.3%. For the same compound, the “Morbidity (%) 2” value ([2]; repeat 2) was 10.6% and the “Morbidity (%) 3” value ([2]; repeat 3) was 8.2%.

With propineb the “Control value(%)” value [3] was 42.9%, the “Morbidity (%) Avg.” value [3] was 12.0 B % and the “Morbidity (%) Avg.” value ([3]; listed as propineb) was 21.9%. The “Morbidity (%) 1” value ([3]; repeat 1) was 10.3%, the “Morbidity (%) 2” value ([3]; repeat 2) was 11.2% and the “Morbidity (%) 3” value ([3]; repeat 3) was 14.5%.

Source: patent US20040151698A1, “Microbial pesticide active against plant fungal pathogens and process for preparation thereof” (priority 2000, published 2004)
